How the values were obtained:
[1] = test system: rHBV-CreN infected HepG2-NTCP-CreC/CIR cells; assay: Negative selection of rHBV-CreN infected cells with Neomycin, flow cytometry; format: cell-based, human; settings: Neomycin 2 mg/ml for 30 days
Experimental: (§1) Cells were collected from 24-well plates using trypsin-versene at a 1:1 ratio (Gibco, 15400-054 and 15040-033). Cell pellets were resuspended in 1 ml of FACS buffer (PBS containing 1% BSA and 0.5 mM EDTA) and incubated with LIVE/DEAD™ Fixable Near-Infrared dead cell stain kit (Invitrogen, L10119). The samples were subjected to CytoFLEX S (Beckman Coulter) and the obtained data was analyzed by FlowJo software (v10, FlowJo LLC.).

rHBV-CreN [2] = assay: HBeAg ELISA of supernatant of rHBV-CreN infected CreC/CIR cells; format: cell-based, hepatitis B virus; settings: rHBV-CreN MOI=250 with MyrB, day 7 post-infection
Experimental: (§2) HepG2-NTCP-CreC/CIR cells were seeded on collagen-coated plates with a density of 1.34×10^3 cells/mm^2 and cultured in DMEM containing 2.5% dimethylsulfoxide (DMSO) for 2 days prior to infection. The inoculum was prepared by diluting the virus in DMEM containing 2.5% DMSO and 4% PEG8000. For blocking rHBV entry, Myrcludex B (200 nM) was added to the rHBV inoculum (Li and Urban, 2016, Cancer research 42, 3858-3863). The cells were inoculated for 24 hours and maintained in DMEM containing 2.5% DMSO for indicated time according to the experimental set-ups.
The amount of HBeAg in cell-derived supernatants was measured using a commercial qualitative immunoassay—Enzygnost HBe monoclonal (Siemens, OQDM11) and automated BEP III system (Siemens Healthcare).

rHBV-CreN [3] = assay: Western blot of Co-InCre reconstitution and core protein in rHBV-CreN infected CreC/CIR cells; format: cell-based, hepatitis B virus; settings: rHBV-CreN infected CreC/CIR cells treated with MyrB
Experimental: as §2
Cellular proteins were isolated using RIPA buffer (Pierce, 89900) containing a protease inhibitor cocktail (Roche, 11836153001). The proteins were separated by 12% Sodium dodecyl sulphate-polyacrylamide gel electrophoresis (SDS-PAGE) and subsequently transferred onto a polyvinylidene difluoride (PVDF) membrane (Bio-Rad, 162-0177). The blotted membrane was blocked with 5% milk-TBST (20 mM Tris-HCl, pH7.4, 140 mM NaCl, 1% Tween 20). The antibodies were diluted in 1.5% milk-TBST. For core protein detection, an in-house hybridoma supernatant (8C9) was used in a 1:1 dilution. For Co-InCre detection, an anti-Cre antibody (Merck, 69050) was used in a 1:1000 dilution. […]-Actin (1:5000; Sigma, A5441) was used as a reference protein. […] The chemiluminescent signal was detected by Intas ECL ChemoCam.

rHBV-CreN [4] = assay: rHBV-CreN infection of CreC/CIR reporter cells with entry inhibitor, DsRed-positive cells by flow cytometry; format: cell-based, hepatitis B virus
Experimental: as §2, with “For blocking rHBV entry, Myrcludex B (200 nM) was added to the rHBV inoculum (Li and Urban, 2016, Cancer research 42, 3858-3863).” left out
as §1

rHBV-CreN [5] = assay: Detection of Cre-lox recombination by PCR in rHBV-CreN infected CreC/CIR cells; format: cell-based, hepatitis B virus; settings: rHBV-CreN infected CreC/CIR cells treated with MyrB
Experimental: as §2
Genomic DNA of the cells was isolated using NucleoSpin® Tissue Kit (Macherey-Nagel, 740952.250). The Cre-lox recombination was analyzed by PCR using primers flanking the neomycin sequence (forward, 5′-[…]-3′ (SEQ ID NO: 29) and reverse, 5′-GGTACCGTCGACTGCAGAT-3′ (SEQ ID NO: 30)). The PCR was performed with 250 ng of genomic DNA and Phusion® Hot Start Flex DNA Polymerase (New England Biolabs, M0535S). The reaction required the following conditions: 1 cycle of denaturation at 98° C. for 30 seconds, 35 cycles of amplification (98° C. for 10 seconds, 61° C. for 30 seconds, 72° C. for 45 seconds), and 1 cycle of extension at 72° C. for 1 minute. The PCR products were examined by agarose gel electrophoresis.

Row | Substance | reduction of the number of DsRed-positive cells compared to untreated group [1] | HBeAg level (rHBV-CreN [2]) | Co-InCre detection (Western blot) (rHBV-CreN [3]) | core protein detection (Western blot) (rHBV-CreN [3]) | number of DsRed-positive cells (rHBV-CreN [4]; CreC/CIR cells, rHBV-CreN MOI=250, MyrB added to the inoculum, day 7 post-infection, FACS) | percentage of DsRed-positive cells (rHBV-CreN [4]; HepG2-NTCP-CreC/CIR cells, rHBV-CreN MOI=300 virions/cell, Myrcludex B 200 nM, 10 days post infection, flow cytometry) | 0.2-kb band (ΔNeo) PCR product (rHBV-CreN [5])
1 | Neomycin | 3.6 fold |  |  |  |  |  | 
2 | Myrcludex-B [MyrB] |  | comparable to that of the mock sample | not detected | not detected | less than 1% | less than 1% | absent

Source: patent US11578321B2, “Recombinant HBV reporter system” (Helmholtz Zentrum München Deutsches Forschungszentrum für …, priority 2018, dated 2023)
